# Measurements as given in publication PMC12474041 (Toxins, 2025).
# Read-outs that look alike come from different tables or passages of the source. Bridge positions count the residues as written; N and C are the ends.
# Experiments:
# patients with NDM = settings: cited from earlier work
# [1] = test system: DIII S6 and DIV S6 of the sodium channel pore domain; settings: cited from earlier work
# [2] = cited from earlier work
# Kv1.3 = assay: Whole-cell patch clamp, Kv1.3 in transfected HEK cells; settings: 50 μM, room temperature, currents evoked at 0 mV, held at −80 mV
# Protocol: (§1) Plasmids containing sodium channels or potassium channels were transfected into HEK cells (gifted from Rong’s lab at Hunan Normal University, Changsha, China [32]) using Lipofectamine 2000. After 24 h, whole-cell patch clamp recordings were made at room temperature. Using a drawn borosilicate glass electrode (resistance 3–5 MΩ) filled with intracellular solution, the current of the transfected cells was assessed using the MultiClamp 700B amplifier (Molecular Devices, Sunnyvale, America) and pCLAMP 10 software. We set the clamping voltage to −80 mV and the stimulation voltage to 0 mV.
# (§2) The extracellular solution used to record the sodium ion channels included the following components (in mM): 150 NaCl, 2 KCl, 1.5 CaCl2, 1 MgCl2, and 10 HEPES, and the pH was adjusted to 7.4 with NaOH. To record the potassium ion channel, the extracellular solution contained (in mM) 140 NaCl, 2 KCl, 1.5 CaCl2, 1 MgCl2, and 10 HEPES, and the pH was adjusted to 7.4 using NaOH. The intracellular solution that recorded the sodium ion channel currents contained 10 mM NaCl, 10 mM EGTA, 135 mM CsCl, and 10 mM HEPES, and the pH was adjusted to 7.3 with CsOH. To record the potassium ion channel currents, the intracellular solution contained 10 mM EGTA, 140 mM KCl, 2.5 mM MgCl2, and 10 mM HEPES, and the pH was adjusted to 7.4 using NaOH.
# Kv1.4 = assay: Whole-cell patch clamp, Kv1.4 in transfected HEK cells; settings: 50 μM, room temperature, currents evoked at 0 mV, held at −80 mV
# Protocol: as §1, §2
# Kv4.2 = assay: Whole-cell patch clamp, Kv4.2 in transfected HEK cells; settings: 50 μM, room temperature, currents evoked at 0 mV, held at −80 mV
# Protocol: as §1, §2
# Nav1.4 [3] = biological target: T1, Nav1.4 (Homo sapiens, UniProt P35499); assay: Whole-cell patch clamp, Nav1.4 in transfected HEK cells
# Protocol: as §1, §2
# Nav1.5 [4] = assay: Whole-cell patch clamp, Nav1.5 in transfected HEK cells; settings: room temperature, currents evoked at 0 mV, held at −80 mV
# Protocol: as §1, §2
# Nav1.7 = assay: Whole-cell patch clamp, Nav1.7 in transfected HEK cells; settings: room temperature, currents evoked at 0 mV, held at −80 mV
# Protocol: as §1, §2
# Nav1.5 [5] = settings: cited from earlier work
# Nav1.4 [6] = biological target: T1, Nav1.4; design: expressed in transfected cells; host or cells: HEK cells; settings: cited from earlier work
# [7] = test system: N-type (Cav2.2) calcium channels; settings: cited from earlier work
# [8] = test system: G-protein-coupled GABAB receptors; settings: cited from earlier work
# T1 sequence (P35499 whole entry): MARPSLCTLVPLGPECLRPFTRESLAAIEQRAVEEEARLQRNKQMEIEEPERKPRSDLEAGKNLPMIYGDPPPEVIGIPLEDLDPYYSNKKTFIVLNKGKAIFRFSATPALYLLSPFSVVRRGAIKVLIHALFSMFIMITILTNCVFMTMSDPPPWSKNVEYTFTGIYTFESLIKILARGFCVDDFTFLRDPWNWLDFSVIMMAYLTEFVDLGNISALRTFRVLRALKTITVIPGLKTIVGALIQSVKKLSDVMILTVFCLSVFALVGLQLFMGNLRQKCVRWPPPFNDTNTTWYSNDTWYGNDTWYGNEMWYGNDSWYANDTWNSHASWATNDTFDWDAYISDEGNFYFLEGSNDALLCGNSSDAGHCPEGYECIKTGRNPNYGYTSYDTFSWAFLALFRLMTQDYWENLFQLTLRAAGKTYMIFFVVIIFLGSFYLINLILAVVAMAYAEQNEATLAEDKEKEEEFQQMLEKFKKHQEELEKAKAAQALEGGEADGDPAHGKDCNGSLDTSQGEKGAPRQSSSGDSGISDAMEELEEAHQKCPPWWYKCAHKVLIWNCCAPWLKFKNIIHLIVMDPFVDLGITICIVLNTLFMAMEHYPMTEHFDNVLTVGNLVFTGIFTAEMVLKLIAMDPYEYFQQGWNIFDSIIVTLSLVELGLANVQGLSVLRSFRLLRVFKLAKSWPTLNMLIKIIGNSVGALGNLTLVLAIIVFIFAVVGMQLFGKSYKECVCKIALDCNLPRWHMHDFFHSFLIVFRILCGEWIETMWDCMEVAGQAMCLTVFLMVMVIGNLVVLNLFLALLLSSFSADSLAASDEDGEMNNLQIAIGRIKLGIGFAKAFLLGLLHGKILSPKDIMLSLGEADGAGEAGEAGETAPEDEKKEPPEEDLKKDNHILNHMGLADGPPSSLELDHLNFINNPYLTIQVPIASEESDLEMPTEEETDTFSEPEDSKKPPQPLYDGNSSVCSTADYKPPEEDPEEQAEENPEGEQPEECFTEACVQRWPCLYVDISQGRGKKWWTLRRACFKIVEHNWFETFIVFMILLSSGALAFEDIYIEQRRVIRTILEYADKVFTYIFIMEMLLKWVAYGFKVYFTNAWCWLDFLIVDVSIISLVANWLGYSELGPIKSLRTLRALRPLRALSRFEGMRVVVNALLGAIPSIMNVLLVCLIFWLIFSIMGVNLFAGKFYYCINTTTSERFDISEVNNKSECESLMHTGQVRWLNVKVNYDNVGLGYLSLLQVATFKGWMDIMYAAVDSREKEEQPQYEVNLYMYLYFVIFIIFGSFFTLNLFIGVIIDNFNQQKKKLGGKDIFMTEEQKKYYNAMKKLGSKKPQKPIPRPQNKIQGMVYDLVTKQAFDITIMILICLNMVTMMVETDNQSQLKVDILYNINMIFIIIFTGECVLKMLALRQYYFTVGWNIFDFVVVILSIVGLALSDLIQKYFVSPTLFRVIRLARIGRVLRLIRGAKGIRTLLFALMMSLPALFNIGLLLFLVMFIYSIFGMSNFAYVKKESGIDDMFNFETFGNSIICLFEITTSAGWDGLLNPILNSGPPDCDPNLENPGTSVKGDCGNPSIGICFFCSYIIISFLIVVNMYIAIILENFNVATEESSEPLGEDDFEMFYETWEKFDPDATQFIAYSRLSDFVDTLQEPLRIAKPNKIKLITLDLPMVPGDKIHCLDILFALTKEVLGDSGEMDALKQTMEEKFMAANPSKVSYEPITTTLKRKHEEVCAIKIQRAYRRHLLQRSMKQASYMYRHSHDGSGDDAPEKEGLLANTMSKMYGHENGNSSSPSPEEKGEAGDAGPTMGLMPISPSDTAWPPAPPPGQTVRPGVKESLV
compound,measurement,setting,value
Cc1cccc(C)c1OCC(C)N (stereo not drawn) [mexiletine],effect on muscle stiffness,patients with NDM; patients with NDM,improving muscle stiffness in patients with NDM
same,binding site on sodium channel,[1],binds to DIII S6 and DIV S6 of the sodium channel pore domain
same,side effects,[2]; sensitivity of different patients varies greatly,indigestion
"GEFINGDCELPKVVGPCRAGFRRYYYNSSSKRCEKFIYGGCRGNANNFHTLEECEKVCGVRS (disulfide 8-58, 17-41, 33-54 (inferred)) [Avd3i, U-actitoxin-Avd3i]",effect on Kv1.3,Kv1.3,no effect
same,effect on Kv1.4,Kv1.4,no effect
same,effect on Kv4.2,Kv4.2,no effect
same,IC50,Nav1.4 [3],25400 nM
same,inhibition of Nav1.4 channel at 50.0 μM,"Nav1.4 [3]; 50.0 μM perfusion, transfected HEK cells, room temperature, holding −80 mV, stimulation 0 mV",suppressed
same,concentration dependence of Nav1.4 inhibition,"Nav1.4 [3]; transfected HEK cells, whole-cell patch clamp",concentration-dependent manner
same,effect on Nav1.5,Nav1.5 [4],did not inhibit
same,effect on Nav1.7,Nav1.7,did not inhibit
ATX-II,EC50,Nav1.5 [5],49 nM
same,EC50,Nav1.4 [6],109 nM
Vc1.1,direct binding to Cav2.2,[7],do not directly bind
same,inhibition of Cav2.2 channel function,[7],indirectly inhibit channel function
same,binding to GABAB receptors,[8],binding to G-protein-coupled GABAB receptors
O=C(NCC1CCCCN1)c1cc(OCC(F)(F)F)ccc1OCC(F)(F)F (stereo not drawn) [flecainide],efficacy in patients with NDM,patients with NDM,effective in some patients with NDM
"Cc1cccc(C)c1NC(=O)C(C)N (stereo not drawn) [Tocainide, tocainide]",side effects,[2]; can be fatal,"anemia, agranulocytosis, pulmonary fibrosis, interstitial pneumonia, and pulmonary edema"
